The numbers were not newly measured in patent US7683052B2, “Crystalline polymorph of bazedoxifene acetate” (Wyeth, priority 2004, dated 2010), which cites them from elsewhere.

SMILES strings stand for the structures.

In data set [1] the test system is MCF-7 cell line (human breast cancer cell line). To be noted: MCF-7 human breast cancer cell line.
The subject of another data set is ovariectomized rat. The settings on record: ovariectomized rat model of osteopenia.
Another data set relates to uterine response. To be noted: preclinical models of uterine stimulation.

On to `Cc1c(-c2ccc(O)cc2)n(Cc2ccc(OCCN3CCCCCC3)cc2)c2ccc(O)cc12` [bazedoxifene acetate, 1-[4-(2-azepan-1-yl-ethoxy)-benzyl]-2-(4-hydroxy-phenyl)-3-methyl-1H-indol-5-ol acetic acid], for which the “Estrogen agonist/antagonist behaviour in MCF-7 cells” value in data set [1] is recorded as “behaves as an estrogen antagonist”. Moreover, in the data set with ovariectomized rat, the “Effect on bone loss and cholesterol” value is “estrogen agonist-like effect in preventing bone loss and reducing cholesterol”. Further, in the data set with uterine response, the “Stimulation of uterine response” value is listed as “little or no stimulation of uterine response”.
